Results taken from patent US11844801B2, “Oral compositions of MK2 pathway inhibitor for treatment of immune conditions” (priority 2020, dated 2023).
Several values for one entry are separate records, joined by “and”; a condition that tells them apart may be missing. Equal entries are not always repeated. Where two headings read alike, the source gives them in different places.

Assay: Phase 1 SAD/MAD pharmacokinetics of oral ATI-450 in healthy subjects (incl. 80/120 mg BID extension)
Type: in vivo, human
Settings: for concentration at 7 day / concentration at 2 day / concentration at 3 day / concentration at 4 day / concentration at 5 day / concentration at 6 day: read-out: Ctrough; for Tmax: read-out: Tmax, median (min, max); for concentration at 2 day: day 2; for concentration at 3 day: day 3; for concentration at 4 day: day 4; for concentration at 5 day: day 5; for concentration at 6 day: day 6; for half-life: read-out: t1/2 (converted)
Protocol: Study Design. […] Single ascending dose (SAD) cohorts. […] Multiple ascending dose (MAD) cohorts. […] Blood Sampling and Bioanalysis. Two-milliliter blood samples were collected for PK analysis. […] The lower limit of quantification was 0.500 ng/mL. Pharmacokinetics. […] Bioanalysis Assay of ATI-450. Sample processing was performed by protein precipitation using a 50.0-μL sample volume. […] A triple quadrupole 6500 mass spectrometer equipped with a turbo-ion spray source was used for detection in positive ion mode. […] A linear calibration curve ranging from 0.500 to 500 ng/mL with a 1/x^2 weighting factor was used. The method was minimally required to have intra- and inter-day precision (coefficients of variation) for pooled plasma quality control samples of ≤15% except at the lower limit of quantitation, where ≤20% was acceptable. The calculated concentrations (both inter- and intra-day) were required to be within 15% of nominal at all concentrations except the lower limit of quantitation, where up to 20% deviation from nominal was acceptable. The precision and accuracy of the method exceeded these minimum requirements for assay validation.

[1] = 100 mg single dose, fed vs fasted
[2] = both sexes, human, plasma, oral, 10 mg, 10 mg BID
[3] = both sexes, human, plasma, oral, 10 mg, 10 mg BID, day 7
[4] = both sexes, human, plasma, oral, 30 mg, 30 mg BID
[5] = both sexes, human, plasma, oral, 30 mg, 30 mg BID, day 7
[6] = both sexes, human, plasma, oral, 50 mg, 50 mg BID, day 1
[7] = both sexes, human, plasma, oral, 50 mg, 50 mg BID
[8] = both sexes, human, plasma, oral, 50 mg, 50 mg BID, day 7

SMILES: Cc1cnc(-c2ccnc(C(C)(C)O)n2)cc1-n1c(C)cc(OCc2ncc(F)cc2F)c(Cl)c1=O (single isomer, unassigned) [ATI-450, 3-chloro-4-((3,5-difluoropyridin-2-yl)methoxy)-2′-(2-(2-hydroxypropan-2-yl)pyrimidin-4-yl)-5′,6-dimethyl-2H-[1,4′-bipyridin]-2-one]
- AUC(0-t) (10 mg BID, day 7): 364.6 ± 110.7 ng·h/mL
- AUCtau (10 mg BID, day 7): 287.8 ± 81.5 ng·h/mL
- CLss/F (10 mg BID, day 7): 37.4 ± 10.9 L/h
- Cavg (10 mg BID, day 7): 24.0 ± 6.8 ng/mL
- Cmin (10 mg BID, day 7): 8.1 ± 3.1 ng/mL
- Ctrough (10 mg BID, day 7): 11.8 ± 5.2 ng/mL
- Tmax, median (min, max) (10 mg BID, day 7): 2.0 (2.0-2.0) h
- Vss/F (10 mg BID, day 7): 517.4 ± 203.2 L
- AUC(0-t) (30 mg BID, day 7): 1204.6 ± 309.1 ng·h/mL
- AUCtau (30 mg BID, day 7): 908.9 ± 163.1 ng·h/mL
- CLss/F (30 mg BID, day 7): 33.9 ± 5.9 L/h
- Cavg (30 mg BID, day 7): 75.6 ± 13.4 ng/mL
- Cmin (30 mg BID, day 7): 28.8 ± 10.7 ng/mL
- Ctrough (30 mg BID, day 7): 41.1 ± 18.3 ng/mL
- Tmax, median (min, max) (30 mg BID, day 7): 2.0 (1.0-4.0) h
- Vss/F (30 mg BID, day 7): 483.1 ± 85.1 L
- t1/2 (30 mg BID, day 7): 10.3 ± 3.2 h
- Tmax, median (min, max) (50 mg BID, day 1): 2.0 (2.0-4.0) h
- AUC0-12 (50 mg BID, day 7): 1507.8 (659.9) ng · h/mL
- CLss/F (50 mg BID, day 7): 37.3 ± 11.7 L/h
- Cavg (50 mg BID, day 7): 125.6 ± 55.0 ng/mL
- Cmax (50 mg BID, day 7): 219.0 (77.8) ng/mL
- Cmin (50 mg BID, day 7): 58.7 ± 32.8 ng/mL
- Ctrough (50 mg BID, day 7): 87.9 ± 49.4 ng/mL
- Tmax, median (min, max) (50 mg BID, day 7): 3.0 (1.0, 4.0) h and 3.0 (1.0-4.0) h
- CLss/F (80 mg BID, day 7): 33.2 ± 7.6 L/h
- Ctrough (80 mg BID, day 7): 158.3 ± 60.3 ng/mL
- AUC0-∞ higher in the fed state [1]: about 24%
- Cmax lower in the fed state [1]: about 9%
- CLss/F (120 mg BID, day 7): 52.3 ± 17.4 L/h
- Ctrough (120 mg BID, day 7): 155.8 ± 93.1 ng/mL
- accumulation after multiple dosing (10-50 mg BID): up to 1.4 fold
- terminal half-life (mean t1/2), range over cohorts (MAD cohorts 10-50 mg BID, day 7): 9 to 12 h
- concentration at 7 day (both sexes, human, plasma, oral, 10 mg BID, day 7): 11.8 ng/mL
- AUC(0-t) (both sexes, human, plasma, oral, 10 mg, 10 mg BID, day 1, read-out: AUC0-12): 200 ng·h/mL
- Cmax (both sexes, human, plasma, oral, 10 mg, 10 mg BID, day 1, read-out: Cmax): 34.3 ng/mL
- Tmax (both sexes, human, plasma, oral, 10 mg, 10 mg BID, day 1): 2 h
- concentration at 2 day [2]: 10.1 ± 4.7 ng/mL
- concentration at 3 day [2]: 9.8 ± 4.5 ng/mL
- concentration at 4 day [2]: 9.2 ± 5 ng/mL
- concentration at 5 day [2]: 9.6 ± 4.7 ng/mL
- concentration at 6 day [2]: 10.7 ± 4.9 ng/mL
- AUC(0-t) (both sexes, human, plasma, oral, 10 mg, 10 mg BID, day 7, read-out: AUC0-12): 288 ng·h/mL
- Cmax (both sexes, human, plasma, oral, 10 mg, 10 mg BID, day 7, read-out: Cmax): 51.8 ng/mL
- Tmax [3]: 2 h
- half-life [3]: 9.6 h
- concentration at 7 day (both sexes, human, plasma, oral, 30 mg BID, day 7): 41.1 ng/mL
- AUC(0-t) (both sexes, human, plasma, oral, 30 mg, 30 mg BID, day 1, read-out: AUC0-12): 681 ng·h/mL
- Cmax (both sexes, human, plasma, oral, 30 mg, 30 mg BID, day 1, read-out: Cmax): 126 ng/mL
- Tmax (both sexes, human, plasma, oral, 30 mg, 30 mg BID, day 1): 2 h
- concentration at 2 day [4]: 37.5 ± 18.8 ng/mL
- concentration at 3 day [4]: 44.1 ± 29.3 ng/mL
- concentration at 4 day [4]: 36.8 ± 14.9 ng/mL
- concentration at 5 day [4]: 34.9 ± 13.8 ng/mL
- concentration at 6 day [4]: 38.9 ± 16.2 ng/mL
- AUC(0-t) (both sexes, human, plasma, oral, 30 mg, 30 mg BID, day 7, read-out: AUC0-12): 909 ng·h/mL
- Cmax (both sexes, human, plasma, oral, 30 mg, 30 mg BID, day 7, read-out: Cmax): 146 ng/mL
- Tmax [5]: 2 h
- half-life [5]: 10.3 h
- concentration at 7 day (both sexes, human, plasma, oral, 50 mg BID, day 7): 87.9 ng/mL
- AUC [6]: 1180 ± 340 ng·h/mL
- AUC(0-t) (both sexes, human, plasma, oral, 50 mg, 50 mg BID, day 1, read-out: AUC0-12): 1180 ng·h/mL
- AUC(0-t) (both sexes, human, plasma, oral, 50 mg, 50 mg BID, day 1, read-out: AUC0-t): 1180 ± 340 ng·h/mL
- Cmax (both sexes, human, plasma, oral, 50 mg, 50 mg BID, day 1, read-out: Cmax): 187 ng/mL
- Tmax [6]: 2 h
- concentration at 2 day [7]: 84 ± 40.6 ng/mL
- concentration at 3 day [7]: 80.6 ± 44.2 ng/mL
- concentration at 4 day [7]: 81.5 ± 49.6 ng/mL
- concentration at 5 day [7]: 81.5 ± 43.9 ng/mL
- concentration at 6 day [7]: 76.4 ± 38.6 ng/mL
- AUC [8]: 1510 ± 660 ng·h/mL
- AUC(0-t) (both sexes, human, plasma, oral, 50 mg, 50 mg BID, day 7, read-out: AUC0-12): 1510 ng·h/mL
- AUC(0-t) (both sexes, human, plasma, oral, 50 mg, 50 mg BID, day 7, read-out: AUC0-24, total daily exposure calculated as AUC0-12 × 2): 3040 ng·h/mL
- AUC(0-t) (both sexes, human, plasma, oral, 50 mg, 50 mg BID, day 7, read-out: AUC0-t): 2260 ± 1070 ng·h/mL
- Cmax (both sexes, human, plasma, oral, 50 mg, 50 mg BID, day 7, read-out: Cmax): 219 ng/mL
- Tmax [8]: 3 h
- half-life [8]: 11.6 h
- concentration at 7 day (both sexes, human, plasma, oral, 80 mg BID, day 7): 158 ng/mL
- AUC (both sexes, human, plasma, oral, 80 mg, 80 mg BID, day 1): 1690 ± 454 ng·h/mL
- AUC(0-t) (both sexes, human, plasma, oral, 80 mg, 80 mg BID, day 1, read-out: AUC0-t): 1680 ± 451 ng·h/mL
